Source: patent publication US12642777B2 (SHENZHEN CHINA RESOURCES JIUCHUANG MEDICAL AND …, priority 2020, dated 2026)

Experiments:
[1] = intravenous bolus, 75 mg/m^2, ovarian cancer; cited from earlier work
[2] = Pharmacokinetics and tolerated dose of intravenous mitoxantrone chemotherapy reported in a document; format: in vivo, human; settings: 75 mg/m^2 intravenous bolus versus 3143 ng×min/ml
Protocol: Moreover, the drug is metabolized rapidly after entering the blood, and the drug in the plasma is almost completely metabolized 60 min, 120 min at most, after the administration.

## O=C1c2c(O)ccc(O)c2C(=O)c2c(NCCNCCO)ccc(NCCNCCO)c21 [mitoxantrone]
[1]
  AUC: 560 to 1700 ng·h/mL
[2]
  AUC of the document as multiple of the maximum AUC in the present trial: 10.7-32.5 times
